Experimental findings from patent US4528294A, “Benzoyl-phenyl-piperidine derivatives” (Societe de Recherches Industrielle S.O.R.I., priority 1981, dated 1985) are described below.

One data set concerns lymphocytes of the mouse. The data set is described as follows: Stimulation in vitro of mouse lymphocytes (tritium-marked thymidine incorporation). It is filed as cell-based, mouse (DBA/2). Conditions: at the optimal concentration; thymidine incorporation in 24 hours with respect to control culture; PHA and PWM. How it is done: Lymphocytes (5×10^5 cells per measurement) extracted from the spleen of inbred mice (DBA/2) are incubated for 36 hours at 37° C. in an atmosphere of oxygen with 5% of CO2 in a culture medium (RPMI 1640) containing:
10% (by weight) of foetal calf serum (100 μl per measurement)
10 μl of a solution of lectins in the proportion of 5 μg/ml of phytohemaglutinine (PHA) and 40 μg/ml of Pokeweed Mitogen (PWM), and
the substance to be tested.
The activity is evaluated by measuring the radio-activity obtained by incorporation in 24 hours of 2 μCi (i.e. 7.4×10^4 becquerels) of tritium-marked thymidine, with respect to a control culture.
The results obtained are grouped together in Table II hereinbelow which gives the optimum concentration of the products in μg/ml, and where symbols +, ++ and +++ signify: […]

In another data set the test system is mouse. The data set is described as follows: Toxicity (LD-50 and LD-0), i.p. route in the mouse. It is filed as in vivo. How it is done:
(§1) The toxicity (LD-50 and LD-0) was determined by the i.p. route in the mouse according to the technique of S. T. Litchfield described in J. Pharm. Exp. Ther. 96, 99 (1949).

Data set [1] can be described thus: Toxicity (LD-50 and LD-0), i.p. route in the mouse. It is filed as in vivo. The note with it: in vivo, ip. How it is done:
as §1

Another data set deals with delayed hypersensitivity. The data set is described as follows: Delayed hypersensitivity test. It is filed as in vivo. Conditions: single dose of 5 mg/kg per os, mouse, three days before sensitization. From the text: Furthermore, the product of Example 2 (Code No. 442) was studied according to the delayed hypersensitivity test following the modus operandi described by P. H. Lagrange et al., J. Exp. Med. 139, 1529-1539 (1974).

`CC1CCN(c2ccc(N)cc2C(=O)c2ccccc2)CC1` [Example 27, [2-(4-methyl-1-piperidinyl)-5-aminophenyl]-phenyl-methanone]: in the data set with lymphocytes of the mouse, the Stimulation entry is “+ (stimulation of 0 to 50%)”. For the same molecule, the LD-0 with mouse was above 800 mg/kg.

For `COc1ccc(C(=O)c2ccccc2N2CCC(C)CC2)cc1` [Example 24], the Stimulation result in the data set with lymphocytes of the mouse is recorded as “+ (stimulation of 0 to 50%)”. The molecule further displayed an LD-0 in the data set with mouse above 800 mg/kg.

`CC1CCN(c2ccc(N)cc2C(=O)c2ccc(Br)cc2)CC1` [Example 30] displayed an LD-0 in the data set with mouse above 800 mg/kg.

Take `CNc1ccc(N2CCC(C)CC2)c(C(=O)c2ccc(Cl)cc2)c1` [Example 6, [2-(4-methyl-1-piperidinyl)-5-methylamino-phenyl]-(4-chlorophenyl)methanone]: the Stimulation result in the data set with lymphocytes of the mouse was “+ (stimulation of 0 to 50%)”. The molecule also came in with an LD-0 with mouse above 800 mg/kg.

Take `CC1CCCN(c2ccc(N)cc2C(=O)c2ccc(Cl)cc2)C1` (centres unmarked) [Example 14]: the Stimulation entry with lymphocytes of the mouse is on record as “++ (stimulation of 50% to 100%)”.

Take `CC1CCN(c2ccc(N)cc2C(=O)c2ccccc2Cl)CC1` [Example 8]: the Stimulation result in the data set with lymphocytes of the mouse is “+ (stimulation of 0 to 50%)”. In the data set on mouse, this molecule gave an LD-0 above 800 mg/kg.

Consider `Cc1ccc(C(=O)c2cc(N)ccc2N2CCC(C)CC2)cc1` [Example 15], for which the Stimulation result in the data set with lymphocytes of the mouse was “++ (stimulation of 50% to 100%)”. In the data set with mouse, the LD-0 is recorded as above 800 mg/kg.

On to `COc1ccc(C(=O)c2cc(N)ccc2N2CCC(C)CC2)cc1` [Example 23], for which, in the data set on lymphocytes of the mouse, the Stimulation entry was “++ (stimulation of 50% to 100%)”. The molecule also displayed an LD-0 in the data set with mouse above 800 mg/kg.

Consider `Cc1cc(C(=O)c2cc(N)ccc2N2CCC(C)CC2)cc(C)c1C` [Example 29], for which the Stimulation entry with lymphocytes of the mouse is reported as “+ (stimulation of 0 to 50%)”. In the data set on mouse, this molecule displayed an LD-0 above 800 mg/kg.

In the case of `CC1CCN(c2ccc(N)cc2C(=O)c2ccc(Cl)c(Cl)c2)CC1` [Example 28], the Stimulation entry in the data set on lymphocytes of the mouse is “++ (stimulation of 50% to 100%)”. In the data set with mouse, the LD-0 was above 800 mg/kg.

As for `CC1CCN(c2ccc(N(C)C)cc2C(=O)c2ccc(Cl)cc2)CC1` [Example 5], the Stimulation entry in the data set on lymphocytes of the mouse is listed as “+ (stimulation of 0 to 50%)”. The same molecule showed an LD-0 with mouse above 800 mg/kg.

`CC1CCN(c2ccc(N)cc2C(=O)c2ccc(F)cc2)CC1` [Example 17]: the Stimulation entry with lymphocytes of the mouse is listed as “+ (stimulation of 0 to 50%)”. The same molecule came in with an LD-0 in the data set with mouse above 800 mg/kg.

In the data set on mouse, `CC(C)(C)C1CCN(c2ccc(N)cc2C(=O)c2ccc(Cl)cc2)CC1` [Example 31] showed an LD-0 above 800 mg/kg.

As to `CC1CCN(c2ccc(Cl)cc2C(=O)c2ccc(Cl)cc2)CC1` [Example 22], in the data set with lymphocytes of the mouse, the Stimulation result is “+ (stimulation of 0 to 50%)”. For the same molecule, in data set [1], the LD50 is 1800 mg/kg.

For `COc1ccc(C(=O)c2cc(N)ccc2N2CCC(C)CC2)cc1OC` [Example 9], the Stimulation result with lymphocytes of the mouse is given as “+ (stimulation of 0 to 50%)”. In addition, in the data set on mouse, the LD-0 was above 800 mg/kg.

`Cc1ccc(C(=O)c2cc(N)ccc2N2CCC(C)CC2)c(C)c1` [Example 16]: the Stimulation entry with lymphocytes of the mouse is on record as “++ (stimulation of 50% to 100%)”. Further, in data set [1], the LD50 turned out to be 750 mg/kg.

The molecule `CC1CCN(c2ccccc2C(=O)c2ccccc2)CC1` [Example 4, [2-(4-methyl-1-piperidinyl)-phenyl]-phenyl-methanone] registered an LD-0 in the data set with mouse above 800 mg/kg.

For `CC1CCCCN1c1ccc(N)cc1C(=O)c1ccc(Cl)cc1` (centres unmarked) [Example 20], the Stimulation entry in the data set with lymphocytes of the mouse is listed as “+++ (stimulation greater than 100%)”. For the same molecule, the LD-0 with mouse is above 800 mg/kg.

Consider `CC1CC(C)CN(c2ccc(N)cc2C(=O)c2ccc(Cl)cc2)C1` (centres unmarked) [Example 19], for which the Stimulation result with lymphocytes of the mouse is reported as “++ (stimulation of 50% to 100%)”. In the data set on mouse, this molecule showed an LD-0 above 800 mg/kg.

On to `Nc1ccc(N2CCCCC2)c(C(=O)c2ccc(Cl)cc2)c1` [Example 12], for which the Stimulation result in the data set on lymphocytes of the mouse is “+ (stimulation of 0 to 50%)”. Further, the LD-0 with mouse is above 800 mg/kg.

As for `CCOC(=O)Nc1ccc(N2CCC(C)CC2)c(C(=O)c2ccc(Cl)cc2)c1` [Example 3, [2-(4-methyl-1-piperidinyl)-5-(N-ethoxycarbonyl-amino)-phenyl]-(4-chlorophenyl)-methanone], in the data set with lymphocytes of the mouse, the Stimulation result is given as “++ (stimulation of 50% to 100%)”. This molecule yielded an LD-0 in the data set on mouse above 800 mg/kg.

Take `CC1CCN(c2ccccc2C(=O)c2ccc(Cl)cc2)CC1` [Example 21]: in data set [1], the LD50 turned out to be 1800 mg/kg.

Regarding `CC1CCN(c2ccc(N)cc2C(=O)c2ccc(Cl)cc2)CC1` [Example 2, [2-(4-methyl-1-piperidinyl)-5-aminophenyl]-(4-chlorophenyl)-methanone], in the data set with lymphocytes of the mouse, the Stimulation entry is recorded as “+++ (stimulation greater than 100%)”. The “reduction of the delayed hypersensitivity” value with delayed hypersensitivity is given as “reduction by half”. In data set [1], this molecule displayed an LD50 of 1300 mg/kg.

For `CC1CCN(c2ccc([N+](=O)[O-])cc2C(=O)c2ccc(Cl)cc2)CC1` [Example 1, [2-(4-methyl-1-piperidinyl)-5-nitrophenyl]-(4-chlorophenyl)-methanone], in the data set with lymphocytes of the mouse, the Stimulation entry was “++ (stimulation of 50% to 100%)”. In addition, the LD-0 with mouse is recorded as above 800 mg/kg.

Usually LD50 stands for the dose expected to kill half of the subjects tested.
